From ChEMBL document CHEMBL1201862, “PubChem BioAssay data set” (2004)
Active and inactive are the calls of the source.

What was measured:
[1] = target: T1, Microphthalmia-associated transcription factor (Homo sapiens, UniProt O75030); assay: TRPM1 promoter luciferase signal decrease, dose response, MITF inhibitor project, cell-based, SK-MEL-5, cherry-picked, set 3 (AID 493073); assay type: functional
T1 sequence (O75030 whole entry): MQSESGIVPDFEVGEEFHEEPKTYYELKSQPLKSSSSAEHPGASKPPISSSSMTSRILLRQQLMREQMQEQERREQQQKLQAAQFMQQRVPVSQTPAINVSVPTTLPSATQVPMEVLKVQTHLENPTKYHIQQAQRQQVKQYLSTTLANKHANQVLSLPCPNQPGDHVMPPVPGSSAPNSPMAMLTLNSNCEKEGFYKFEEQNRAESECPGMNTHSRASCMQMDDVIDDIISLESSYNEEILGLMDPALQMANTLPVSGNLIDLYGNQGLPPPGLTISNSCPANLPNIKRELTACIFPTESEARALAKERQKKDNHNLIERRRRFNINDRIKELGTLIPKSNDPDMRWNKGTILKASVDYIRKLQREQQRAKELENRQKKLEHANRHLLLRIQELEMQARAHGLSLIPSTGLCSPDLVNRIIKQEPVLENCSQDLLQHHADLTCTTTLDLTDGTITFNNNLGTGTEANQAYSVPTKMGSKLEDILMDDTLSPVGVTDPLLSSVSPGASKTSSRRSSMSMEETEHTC

Cytochrome P450 2D6 = Cytochrome P450 2D6 (Homo sapiens, UniProt P10635);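 further: CYP2D6 member of a cytochrome P450 panel assay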
Cytochrome P450 2C19 = Cytochrome P450 2C19 (Homo sapiens, UniProt P33261); assay: Cytochrome panel assay with activity outcomes. Panel member name: p450-cyp2c19 Compounds with AC50 equal or less than 10 uM are considered active; assay type: functional; conditions: read-out: AC50
Leucine aminopeptidase = target: T2, Leucine aminopeptidase (Plasmodium falciparum 3D7, UniProt Q8IL11); assay: P. falciparum M17LAP inhibitors, primary screen, biochemical, fluorogenic H-Leu-NHMec substrate, 1536-well (AID 1619); assay type: functional
T2 sequence (Q8IL11 whole entry): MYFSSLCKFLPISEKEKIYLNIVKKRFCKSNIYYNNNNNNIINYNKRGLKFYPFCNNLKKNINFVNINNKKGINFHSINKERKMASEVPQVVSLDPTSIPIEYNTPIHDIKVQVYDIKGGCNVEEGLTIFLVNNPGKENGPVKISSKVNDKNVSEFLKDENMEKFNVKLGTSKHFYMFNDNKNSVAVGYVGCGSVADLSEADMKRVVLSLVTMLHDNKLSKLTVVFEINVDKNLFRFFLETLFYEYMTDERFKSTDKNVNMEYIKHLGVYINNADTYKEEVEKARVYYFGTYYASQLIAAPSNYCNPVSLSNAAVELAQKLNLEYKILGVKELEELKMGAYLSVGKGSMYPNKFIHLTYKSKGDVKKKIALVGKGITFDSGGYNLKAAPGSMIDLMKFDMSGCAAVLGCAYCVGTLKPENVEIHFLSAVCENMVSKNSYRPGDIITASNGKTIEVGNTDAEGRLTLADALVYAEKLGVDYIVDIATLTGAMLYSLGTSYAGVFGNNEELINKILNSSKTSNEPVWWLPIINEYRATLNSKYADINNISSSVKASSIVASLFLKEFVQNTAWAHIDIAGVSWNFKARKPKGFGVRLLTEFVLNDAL

[2] = target: T3, RNA-binding protein pos-1 (Caenorhabditis elegans, UniProt G5EF15); assay: inhibitors of POS-1/mex-3 RNA binding, dose response, biochemical, fluorescence polarization (AID 1964);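 further: purified POS-1 fused to maltose binding protein made in E. coli; potency of compounds blocking POS-1 binding to fluorescent RNA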
T3 sequence (G5EF15 whole entry): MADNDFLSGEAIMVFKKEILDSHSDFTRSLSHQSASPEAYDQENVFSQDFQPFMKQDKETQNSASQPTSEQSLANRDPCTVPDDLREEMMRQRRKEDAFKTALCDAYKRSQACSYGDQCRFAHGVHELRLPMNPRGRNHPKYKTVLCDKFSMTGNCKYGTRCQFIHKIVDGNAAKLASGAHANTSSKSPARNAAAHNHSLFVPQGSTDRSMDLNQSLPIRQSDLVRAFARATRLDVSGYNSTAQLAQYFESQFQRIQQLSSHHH

Streptococcus = assay: Group A Streptococcus viability loss, dose response, counter-screen for streptokinase expression inhibitor project, luminescence, BacTiterGlo (AID 1915); assay type: functional, organism-based;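 further: potency for reduction of bacterial viability or growth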
Nonstructural protein 1 = Nonstructural protein 1 (Influenza A virus, UniProt Q194T2); assay type: functional, Influenza A virus (A/California/07/2009(H1N1))
[3] = test system: Streptococcus sp. 'group A'; assay: growth inhibition of control SK(-) GAS strain, dose response, counter-screen for streptokinase expression inhibitor project, luminescence, kanamycin, BacTiterGlo, confirmation (AID 1900); assay type: functional, organism-based
Aminopeptidase N = target: T4, Aminopeptidase N (Plasmodium falciparum FcB1/Columbia, UniProt O96935); assay: P. falciparum M1AAP inhibitors, biochemical, fluorogenic H-Leu-NHMec substrate, 1536-well (AID 1445); set-up: species or system Plasmodium falciparum 3D7, 3D7
T4 sequence (O96935 whole entry): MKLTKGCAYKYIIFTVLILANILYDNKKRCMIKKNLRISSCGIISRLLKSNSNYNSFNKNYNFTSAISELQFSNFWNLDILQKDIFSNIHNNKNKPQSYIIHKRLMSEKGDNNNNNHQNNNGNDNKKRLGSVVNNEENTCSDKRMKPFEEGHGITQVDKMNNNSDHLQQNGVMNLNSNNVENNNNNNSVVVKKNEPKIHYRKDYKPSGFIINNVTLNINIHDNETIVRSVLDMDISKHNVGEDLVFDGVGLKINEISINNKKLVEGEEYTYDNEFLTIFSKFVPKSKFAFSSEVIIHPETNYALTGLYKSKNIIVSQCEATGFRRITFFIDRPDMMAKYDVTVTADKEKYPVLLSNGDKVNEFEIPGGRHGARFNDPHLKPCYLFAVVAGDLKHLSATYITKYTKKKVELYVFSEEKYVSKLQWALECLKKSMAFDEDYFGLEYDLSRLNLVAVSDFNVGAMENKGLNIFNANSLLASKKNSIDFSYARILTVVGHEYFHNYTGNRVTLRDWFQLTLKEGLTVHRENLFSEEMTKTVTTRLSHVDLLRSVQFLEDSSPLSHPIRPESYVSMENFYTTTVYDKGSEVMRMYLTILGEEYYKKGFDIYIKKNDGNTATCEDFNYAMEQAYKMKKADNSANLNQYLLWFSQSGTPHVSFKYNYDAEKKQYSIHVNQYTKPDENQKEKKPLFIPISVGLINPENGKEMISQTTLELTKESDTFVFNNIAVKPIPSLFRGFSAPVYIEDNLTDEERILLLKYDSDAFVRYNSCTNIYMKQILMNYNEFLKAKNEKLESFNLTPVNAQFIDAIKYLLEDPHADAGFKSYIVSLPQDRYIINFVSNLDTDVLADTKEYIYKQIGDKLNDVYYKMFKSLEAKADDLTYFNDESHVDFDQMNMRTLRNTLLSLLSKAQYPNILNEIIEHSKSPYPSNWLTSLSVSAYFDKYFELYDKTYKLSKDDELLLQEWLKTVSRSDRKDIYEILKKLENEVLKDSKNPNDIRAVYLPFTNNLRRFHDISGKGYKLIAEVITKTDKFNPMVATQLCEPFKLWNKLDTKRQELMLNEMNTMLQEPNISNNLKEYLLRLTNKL

SUMO-activating enzyme [4] = target: T5, SUMO-activating enzyme (Homo sapiens, UniProt Q9UBT2); assay: SUMOylation inhibitor hit validation, confirmation, SUMOylation inhibitor project, biochemical, AlphaScreen (AID 2018); assay type: functional
[5] = target: T6, Zinc finger protein mex-5 (Caenorhabditis elegans, UniProt Q9XUB2); assay: MEX-5/TCR-2 RNA interaction inhibitors, dose response, biochemical, C. elegans, fluorescence polarization (AID 1960)
T6 sequence (Q9XUB2 whole entry): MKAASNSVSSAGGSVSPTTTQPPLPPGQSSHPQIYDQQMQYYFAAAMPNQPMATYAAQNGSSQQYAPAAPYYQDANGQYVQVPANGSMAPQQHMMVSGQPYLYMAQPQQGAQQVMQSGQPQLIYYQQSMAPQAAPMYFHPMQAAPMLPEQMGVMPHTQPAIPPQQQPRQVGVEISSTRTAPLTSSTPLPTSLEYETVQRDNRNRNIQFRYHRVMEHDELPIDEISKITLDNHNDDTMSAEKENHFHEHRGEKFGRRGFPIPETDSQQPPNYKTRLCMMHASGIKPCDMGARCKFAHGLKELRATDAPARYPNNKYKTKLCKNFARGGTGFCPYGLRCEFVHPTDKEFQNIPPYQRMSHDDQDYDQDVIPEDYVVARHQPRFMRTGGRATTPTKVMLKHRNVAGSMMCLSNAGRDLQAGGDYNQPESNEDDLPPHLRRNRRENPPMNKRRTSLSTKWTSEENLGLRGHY

Albumin = Albumin (Bos taurus, UniProt P02769); assay: Counterscreen for inhibitors of T-cell receptor (TCR)-CD3 interaction: Fluorescence-based biochemical high throughput dose response assay to identify inhibitors of T-cell receptor (TCR)-CD3 interaction using a TAMRA-labeled BSA probe.; assay type: functional
SUMO-activating enzyme [6] = target: T5, SUMO-activating enzyme; assay: inhibitors of in vitro SUMOylation cascade, primary screen, biochemical, HTRF, uHTS (AID 2006); assay type: protein-complex assay
[7] = target: T7, Ubiquitin-conjugating enzyme E2 N (Homo sapiens, UniProt P61088); assay type: functional
T7 sequence (P61088 whole entry): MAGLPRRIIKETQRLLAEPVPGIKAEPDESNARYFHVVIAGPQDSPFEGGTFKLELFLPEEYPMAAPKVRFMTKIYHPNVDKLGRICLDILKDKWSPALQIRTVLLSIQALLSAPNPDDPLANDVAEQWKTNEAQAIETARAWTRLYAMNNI

Bcl-2-related protein A1 = target: T8, Bcl-2-related protein A1 (Mus musculus, UniProt Q07440); assay type: functional;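 further: confirmatory dose–response counterscreen on Bfl-1, used to check hits from a UBC13 polyubiquitin inhibitor campaign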
T8 sequence (Q07440 whole entry): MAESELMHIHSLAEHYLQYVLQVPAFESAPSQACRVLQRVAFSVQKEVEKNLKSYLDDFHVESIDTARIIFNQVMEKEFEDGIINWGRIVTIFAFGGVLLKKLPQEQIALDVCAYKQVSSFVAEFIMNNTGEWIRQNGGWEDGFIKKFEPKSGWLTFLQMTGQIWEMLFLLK

[8] = target: T7, Ubiquitin-conjugating enzyme E2 N; assay type: functional; remark: listed apart in the source
[9] = target: Melanin-concentrating hormone receptor 1 (Homo sapiens, UniProt Q99705); assay: Fluorescence-based counterscreen for antagonists of the G-protein coupled receptor 7 (GPR7): cell-based high throughput dose response assay to identify antagonists of the melanin-concentrating hormone receptor 1 (MCHR1).; assay type: functional
[10] = inhibitors of clade B AD8 Env fusion, dose response, cell-based, cherry-pick (AID 652062); assay type: functional;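 further: luciferase signal from cell-cell fusion driven by HIV-1 clade B AD8 Env; potency is for inhibitors of fusion seen as a drop in luminescence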
[11] = target: T9, Neuropeptides B/W receptor type 1 (Homo sapiens, UniProt P48145); assay: Fluorescence-based dose response cell-based high throughput screening assay to identify antagonists of the G-protein coupled receptor 7 (GPR7). [Related pubchem assays: 1952 (Screening assay (GPR7 antagonists).), 1880 (Summary AID.)]; assay type: functional
T9 sequence (P48145 whole entry): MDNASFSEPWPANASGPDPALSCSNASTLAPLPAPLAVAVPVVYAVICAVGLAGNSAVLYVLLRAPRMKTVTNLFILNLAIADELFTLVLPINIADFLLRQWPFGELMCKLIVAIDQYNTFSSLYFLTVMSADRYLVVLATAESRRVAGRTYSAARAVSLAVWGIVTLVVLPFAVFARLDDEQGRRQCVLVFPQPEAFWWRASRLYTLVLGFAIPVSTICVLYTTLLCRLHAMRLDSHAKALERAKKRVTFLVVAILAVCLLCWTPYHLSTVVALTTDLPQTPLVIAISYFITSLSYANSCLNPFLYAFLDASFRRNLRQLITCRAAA

[12] = inhibitors of HIV Env-driven cell fusion, dose response, cherry-pick (AID 652057); assay type: functional, cell-based
[13] = off-target signal loss in HeLa-CEM21 co-culture – HeLa F-luc CTL cells, cherry-picked, counter-screen for HIV-1 Env fusion inhibitor project, dose response (AID 652040); assay type: functional, cell-based;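 further: potency for signal decrease marking cytotoxic or nonspecific inhibition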
[14] = ZM109 Env clade C HIV-1 fusion inhibitors, dose response, HeLa effector, CEM target cells, luciferase, cherry-pick (AID 652058); assay type: functional, cell-based
Vero = assay: cells; assay type: functional; conditions: Chlorocebus sabaeus

T5 sequence (Q9UBE0 whole entry): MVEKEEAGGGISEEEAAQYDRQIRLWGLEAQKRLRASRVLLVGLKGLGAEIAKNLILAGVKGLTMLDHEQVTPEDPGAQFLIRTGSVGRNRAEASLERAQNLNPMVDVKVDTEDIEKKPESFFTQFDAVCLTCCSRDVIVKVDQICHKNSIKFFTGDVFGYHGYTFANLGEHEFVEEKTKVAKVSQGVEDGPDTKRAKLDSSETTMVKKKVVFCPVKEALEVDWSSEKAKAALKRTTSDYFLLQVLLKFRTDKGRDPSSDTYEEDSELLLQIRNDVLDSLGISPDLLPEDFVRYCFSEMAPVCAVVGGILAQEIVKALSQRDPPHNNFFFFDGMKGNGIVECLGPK
T5 sequence (Q9UBT2 whole entry): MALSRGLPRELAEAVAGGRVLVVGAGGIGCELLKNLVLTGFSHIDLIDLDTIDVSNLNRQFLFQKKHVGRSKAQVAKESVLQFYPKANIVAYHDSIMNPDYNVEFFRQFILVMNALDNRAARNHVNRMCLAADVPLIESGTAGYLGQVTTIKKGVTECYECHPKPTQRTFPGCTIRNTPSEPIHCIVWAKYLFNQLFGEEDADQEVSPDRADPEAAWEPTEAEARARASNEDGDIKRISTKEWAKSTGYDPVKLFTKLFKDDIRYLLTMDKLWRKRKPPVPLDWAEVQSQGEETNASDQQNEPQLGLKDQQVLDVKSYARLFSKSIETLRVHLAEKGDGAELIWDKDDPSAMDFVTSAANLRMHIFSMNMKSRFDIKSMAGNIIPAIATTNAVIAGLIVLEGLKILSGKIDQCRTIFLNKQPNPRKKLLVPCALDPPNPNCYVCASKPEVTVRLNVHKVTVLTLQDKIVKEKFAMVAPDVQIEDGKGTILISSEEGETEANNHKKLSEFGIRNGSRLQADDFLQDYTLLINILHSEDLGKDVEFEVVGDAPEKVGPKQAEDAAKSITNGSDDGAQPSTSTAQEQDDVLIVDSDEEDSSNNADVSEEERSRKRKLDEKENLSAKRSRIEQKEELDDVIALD
Sequence of Albumin (P02769 whole entry): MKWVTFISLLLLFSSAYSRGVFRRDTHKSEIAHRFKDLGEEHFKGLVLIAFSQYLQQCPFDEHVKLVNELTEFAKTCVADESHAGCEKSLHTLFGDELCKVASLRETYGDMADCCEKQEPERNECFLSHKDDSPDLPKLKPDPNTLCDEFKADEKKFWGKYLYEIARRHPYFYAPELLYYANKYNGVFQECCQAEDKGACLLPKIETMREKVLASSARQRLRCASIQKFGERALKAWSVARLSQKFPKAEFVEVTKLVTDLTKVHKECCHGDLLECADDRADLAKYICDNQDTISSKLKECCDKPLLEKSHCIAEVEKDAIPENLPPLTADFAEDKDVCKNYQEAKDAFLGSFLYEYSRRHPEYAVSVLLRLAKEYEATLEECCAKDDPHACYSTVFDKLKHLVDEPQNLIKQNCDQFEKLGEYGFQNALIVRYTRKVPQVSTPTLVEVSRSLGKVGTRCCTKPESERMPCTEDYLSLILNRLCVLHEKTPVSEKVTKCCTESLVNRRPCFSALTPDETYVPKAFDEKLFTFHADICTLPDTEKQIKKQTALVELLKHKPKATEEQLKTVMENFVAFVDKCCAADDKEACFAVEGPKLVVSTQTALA
Sequence of Melanin-concentrating hormone receptor 1 (Q99705 whole entry, the tested form may be a part): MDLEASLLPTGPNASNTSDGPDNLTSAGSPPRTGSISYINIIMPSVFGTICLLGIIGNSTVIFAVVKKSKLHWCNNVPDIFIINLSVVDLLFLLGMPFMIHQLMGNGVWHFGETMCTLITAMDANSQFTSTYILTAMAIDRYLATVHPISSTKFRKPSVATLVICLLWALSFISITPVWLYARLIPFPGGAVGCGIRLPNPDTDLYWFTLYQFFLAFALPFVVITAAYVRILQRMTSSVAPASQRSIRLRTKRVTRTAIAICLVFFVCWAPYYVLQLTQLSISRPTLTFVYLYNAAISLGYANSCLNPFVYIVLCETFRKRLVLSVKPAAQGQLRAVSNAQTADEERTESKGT
Sequence of Cytochrome P450 2C19 (P33261 whole entry): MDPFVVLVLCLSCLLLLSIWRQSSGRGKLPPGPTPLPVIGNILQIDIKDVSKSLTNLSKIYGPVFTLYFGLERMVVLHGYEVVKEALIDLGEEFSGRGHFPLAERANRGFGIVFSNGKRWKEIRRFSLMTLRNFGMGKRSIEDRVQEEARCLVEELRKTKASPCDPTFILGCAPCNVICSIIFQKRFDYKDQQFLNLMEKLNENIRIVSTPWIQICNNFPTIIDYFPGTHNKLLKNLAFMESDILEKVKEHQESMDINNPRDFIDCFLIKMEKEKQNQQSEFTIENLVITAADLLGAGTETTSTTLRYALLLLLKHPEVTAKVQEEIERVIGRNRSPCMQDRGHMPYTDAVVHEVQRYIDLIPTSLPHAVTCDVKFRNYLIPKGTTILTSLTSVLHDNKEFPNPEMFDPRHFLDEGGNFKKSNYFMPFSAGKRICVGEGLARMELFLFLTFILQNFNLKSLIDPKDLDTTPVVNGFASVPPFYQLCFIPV
Sequence of Cytochrome P450 2D6 (P10635 whole entry): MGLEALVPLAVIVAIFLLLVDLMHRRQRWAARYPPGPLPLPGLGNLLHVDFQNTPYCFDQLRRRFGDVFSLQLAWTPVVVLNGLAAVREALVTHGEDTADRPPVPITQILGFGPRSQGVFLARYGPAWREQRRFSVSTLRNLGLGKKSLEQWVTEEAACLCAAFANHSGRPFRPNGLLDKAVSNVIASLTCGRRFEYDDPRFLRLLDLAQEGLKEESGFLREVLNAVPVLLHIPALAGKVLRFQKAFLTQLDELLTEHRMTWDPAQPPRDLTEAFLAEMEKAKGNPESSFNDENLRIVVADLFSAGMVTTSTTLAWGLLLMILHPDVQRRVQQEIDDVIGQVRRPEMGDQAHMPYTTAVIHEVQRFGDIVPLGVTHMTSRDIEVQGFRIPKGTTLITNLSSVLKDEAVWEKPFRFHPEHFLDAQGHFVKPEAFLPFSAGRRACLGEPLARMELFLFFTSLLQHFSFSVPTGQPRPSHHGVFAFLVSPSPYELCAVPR
Sequence of Nonstructural protein 1 (Q194T2 whole entry): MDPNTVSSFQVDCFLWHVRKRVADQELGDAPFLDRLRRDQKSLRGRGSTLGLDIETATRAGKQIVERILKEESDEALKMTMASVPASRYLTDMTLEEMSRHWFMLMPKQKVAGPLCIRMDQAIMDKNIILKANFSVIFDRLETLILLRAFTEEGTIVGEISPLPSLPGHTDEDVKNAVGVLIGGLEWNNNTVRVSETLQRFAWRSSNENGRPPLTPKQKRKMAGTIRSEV

[2H]C(CCOS(N)(=O)=O)c1ccc(C(C)(C)C)cc1 (centres undefined)
AC50 [1]: 0.487 µM (active)

CCOc1ccc(N(CC(=O)NCc2ccc(OC)cc2)S(=O)(=O)c2c(C)noc2C)cc1
AC50 (Cytochrome P450 2D6): inconclusive
AC50 (Cytochrome P450 2C19): 282 nM (inconclusive)

O=C1NC(=O)N(Cc2ccco2)C(=O)/C1=C/NNC(=O)c1ccccc1O
IC50 (Leucine aminopeptidase): 50.3 µM (active)
EC50 [2]: 15.5 µM (active)
EC50 (Streptococcus): 6.03 µM (active)
IC50 (Nonstructural protein 1): 42.3 µM (active)
EC50 [3]: 3 µM (active)
IC50 (Aminopeptidase N): 26.2 µM (active)
IC50 (SUMO-activating enzyme [4]): 2.29 µM (active)
EC50 [5]: 16.9 µM (active)
IC50 (Albumin): > 94 µM (inactive)
IC50 (SUMO-activating enzyme [6]): 15 µM (active)

C=CCNC(=S)Nc1sc2c(c1C(=O)OCC)CCN(C(=O)OCC)C2
IC50 [7]: 12.4 µM (active)
IC50 (Bcl-2-related protein A1): > 20 µM (inactive)
IC50 [8]: > 20 µM (inactive)

COC(=O)CNC(c1ccccc1)c1cc(C)ccc1NC(=O)CNC(=O)OCc1ccccc1 (centres undefined)
IC50 [9]: 20 µM (not active)
AC50 [10]: 36.1 µM (active)
IC50 [11]: 35.3 µM (not active)
AC50 [12]: 3.28 µM (active)
AC50 [13]: 6.15 µM (active)
AC50 [14]: 6.89 µM (active)

O=C(CSc1ccc(Cl)cc1)NC1CCCC1
AC50 [1]: 14.2 µM (active)

C#CCOCCOCCOCCNc1nc(N2CCN(C(=O)[C@H](CCCCN)n3cc([C@@H](N)[C@H](C)CC)nn3)CC2)nc(N2CCN(C(=O)[C@H](CCCCN)n3cc([C@@H](N)CC(N)=O)nn3)CC2)n1
IC50 [7]: 10.3 µM (active)
IC50 (Bcl-2-related protein A1): > 20 µM (inactive)
IC50 [8]: 16.6 µM (active)

Sc1nnc(-c2cccs2)n1/N=C/c1cn(-c2ccccc2)nc1-c1ccc(Cl)cc1
IC50 (SUMO-activating enzyme [4]): 5.24 µM (active)
CC50 (Vero): > 25 µM (active)
IC50 (SUMO-activating enzyme [6]): 34.5 µM (active)
